Test results as given in US7064128B2, “Preferentially substituted calcium channel blockers” (NeuroMed Technologies, Inc., priority 1998, dated 2006).
Like-named read-outs stand apart in the source and are kept apart here.

Columns and labels:
Assay type in all cases: cell-based
[1] = target: T1, N-type calcium channels (α1B+α2δ+β1b cDNA subunits) (Rattus norvegicus, UniProt Q02294); experiment: Whole cell patch clamp, tonic and frequency dependent block, N-type channels in HEK 293 (Example 5); details: for % Block (100 nM) 0.03 Hz: 0.03 Hz (tonic block); for % Block (100 nM) 0.2 Hz: 0.2 Hz (frequency dependent block)
T1 construct: expressed in transfected cells
T1 sequence (Q02294 whole entry): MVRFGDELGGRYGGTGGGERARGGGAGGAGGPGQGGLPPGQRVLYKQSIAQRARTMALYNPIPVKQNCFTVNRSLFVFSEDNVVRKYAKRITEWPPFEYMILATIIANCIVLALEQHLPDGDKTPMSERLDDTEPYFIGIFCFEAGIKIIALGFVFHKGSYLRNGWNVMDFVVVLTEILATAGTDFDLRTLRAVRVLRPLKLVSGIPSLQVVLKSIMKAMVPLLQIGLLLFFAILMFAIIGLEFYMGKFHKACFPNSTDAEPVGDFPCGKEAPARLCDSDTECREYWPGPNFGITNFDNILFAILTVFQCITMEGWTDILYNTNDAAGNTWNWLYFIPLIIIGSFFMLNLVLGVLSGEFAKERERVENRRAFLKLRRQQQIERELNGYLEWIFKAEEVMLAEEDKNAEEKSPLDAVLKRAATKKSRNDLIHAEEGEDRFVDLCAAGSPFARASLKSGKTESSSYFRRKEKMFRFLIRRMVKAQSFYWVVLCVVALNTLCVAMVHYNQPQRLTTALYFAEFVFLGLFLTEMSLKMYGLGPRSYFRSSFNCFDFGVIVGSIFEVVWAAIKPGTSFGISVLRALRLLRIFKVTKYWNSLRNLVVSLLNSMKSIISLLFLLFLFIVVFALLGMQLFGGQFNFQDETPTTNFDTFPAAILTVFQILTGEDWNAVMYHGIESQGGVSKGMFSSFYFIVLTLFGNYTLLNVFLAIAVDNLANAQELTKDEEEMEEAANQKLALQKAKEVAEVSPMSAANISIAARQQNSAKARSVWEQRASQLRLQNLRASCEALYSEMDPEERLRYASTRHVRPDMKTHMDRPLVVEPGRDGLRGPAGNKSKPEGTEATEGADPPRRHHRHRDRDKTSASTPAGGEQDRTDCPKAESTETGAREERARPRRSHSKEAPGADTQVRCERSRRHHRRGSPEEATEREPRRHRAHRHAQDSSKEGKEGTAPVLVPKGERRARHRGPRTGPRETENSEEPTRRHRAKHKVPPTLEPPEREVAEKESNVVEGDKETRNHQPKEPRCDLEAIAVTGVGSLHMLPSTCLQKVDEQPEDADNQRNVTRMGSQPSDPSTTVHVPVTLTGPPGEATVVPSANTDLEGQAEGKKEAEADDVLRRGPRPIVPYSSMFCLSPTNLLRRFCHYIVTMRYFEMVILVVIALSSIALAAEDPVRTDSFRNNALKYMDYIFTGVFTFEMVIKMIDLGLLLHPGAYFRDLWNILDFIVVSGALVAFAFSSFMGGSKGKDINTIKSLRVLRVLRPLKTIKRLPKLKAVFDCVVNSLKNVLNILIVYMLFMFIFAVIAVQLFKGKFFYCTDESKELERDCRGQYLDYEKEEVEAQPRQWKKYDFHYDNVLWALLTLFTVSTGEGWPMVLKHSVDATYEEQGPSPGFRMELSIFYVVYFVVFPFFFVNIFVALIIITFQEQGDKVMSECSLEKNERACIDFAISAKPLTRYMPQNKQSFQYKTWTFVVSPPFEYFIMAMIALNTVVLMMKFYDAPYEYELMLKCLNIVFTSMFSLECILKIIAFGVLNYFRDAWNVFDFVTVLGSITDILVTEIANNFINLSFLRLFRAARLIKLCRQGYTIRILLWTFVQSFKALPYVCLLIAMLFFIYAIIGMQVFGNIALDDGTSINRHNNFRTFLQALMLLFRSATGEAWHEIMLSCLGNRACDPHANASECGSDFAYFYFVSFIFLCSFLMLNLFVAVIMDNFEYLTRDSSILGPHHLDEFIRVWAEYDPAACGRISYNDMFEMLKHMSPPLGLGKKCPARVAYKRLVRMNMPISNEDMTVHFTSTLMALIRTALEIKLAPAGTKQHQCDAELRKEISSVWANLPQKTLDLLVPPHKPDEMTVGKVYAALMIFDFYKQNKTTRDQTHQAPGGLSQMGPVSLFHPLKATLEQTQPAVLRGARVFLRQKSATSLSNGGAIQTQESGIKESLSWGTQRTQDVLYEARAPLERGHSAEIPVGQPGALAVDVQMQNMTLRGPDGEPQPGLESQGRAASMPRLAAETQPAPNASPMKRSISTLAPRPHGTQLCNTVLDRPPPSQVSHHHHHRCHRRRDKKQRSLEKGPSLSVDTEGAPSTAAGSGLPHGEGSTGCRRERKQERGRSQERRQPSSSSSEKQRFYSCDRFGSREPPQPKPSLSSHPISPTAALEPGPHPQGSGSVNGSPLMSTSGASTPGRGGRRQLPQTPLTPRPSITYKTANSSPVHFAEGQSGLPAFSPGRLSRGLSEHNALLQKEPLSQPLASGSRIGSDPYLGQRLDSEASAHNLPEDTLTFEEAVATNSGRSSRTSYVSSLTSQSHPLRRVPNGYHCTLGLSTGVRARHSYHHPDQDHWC
T1 sequence (P54290 25-944 partner limits assumed): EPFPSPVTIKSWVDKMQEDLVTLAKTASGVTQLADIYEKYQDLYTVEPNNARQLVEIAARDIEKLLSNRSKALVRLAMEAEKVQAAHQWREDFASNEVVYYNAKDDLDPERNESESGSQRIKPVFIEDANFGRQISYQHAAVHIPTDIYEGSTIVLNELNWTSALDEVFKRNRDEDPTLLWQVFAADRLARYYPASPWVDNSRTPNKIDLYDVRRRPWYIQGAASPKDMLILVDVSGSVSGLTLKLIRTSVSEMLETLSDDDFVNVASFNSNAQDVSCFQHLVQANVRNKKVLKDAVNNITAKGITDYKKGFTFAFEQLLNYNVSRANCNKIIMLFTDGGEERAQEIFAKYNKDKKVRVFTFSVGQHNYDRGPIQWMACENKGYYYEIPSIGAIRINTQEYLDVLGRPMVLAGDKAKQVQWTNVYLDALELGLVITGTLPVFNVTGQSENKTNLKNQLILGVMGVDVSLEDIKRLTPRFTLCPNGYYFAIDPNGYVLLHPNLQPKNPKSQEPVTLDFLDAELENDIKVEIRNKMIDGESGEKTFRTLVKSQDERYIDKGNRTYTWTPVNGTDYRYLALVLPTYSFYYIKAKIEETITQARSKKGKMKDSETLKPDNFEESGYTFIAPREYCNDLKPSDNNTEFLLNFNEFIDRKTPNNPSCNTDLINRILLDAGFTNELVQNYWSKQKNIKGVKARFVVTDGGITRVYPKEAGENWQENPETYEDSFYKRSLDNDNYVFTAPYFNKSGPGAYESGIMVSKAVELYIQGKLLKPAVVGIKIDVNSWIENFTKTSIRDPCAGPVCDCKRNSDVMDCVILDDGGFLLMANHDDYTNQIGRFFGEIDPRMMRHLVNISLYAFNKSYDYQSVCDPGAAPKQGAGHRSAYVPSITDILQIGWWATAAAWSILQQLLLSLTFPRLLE
T1 sequence (P54290 945-1091 partner limits assumed): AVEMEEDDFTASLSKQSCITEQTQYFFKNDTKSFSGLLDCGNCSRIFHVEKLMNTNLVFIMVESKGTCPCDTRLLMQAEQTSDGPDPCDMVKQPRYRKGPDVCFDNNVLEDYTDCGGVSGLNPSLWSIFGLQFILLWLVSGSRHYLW
T1 sequence (P54283 whole entry partner): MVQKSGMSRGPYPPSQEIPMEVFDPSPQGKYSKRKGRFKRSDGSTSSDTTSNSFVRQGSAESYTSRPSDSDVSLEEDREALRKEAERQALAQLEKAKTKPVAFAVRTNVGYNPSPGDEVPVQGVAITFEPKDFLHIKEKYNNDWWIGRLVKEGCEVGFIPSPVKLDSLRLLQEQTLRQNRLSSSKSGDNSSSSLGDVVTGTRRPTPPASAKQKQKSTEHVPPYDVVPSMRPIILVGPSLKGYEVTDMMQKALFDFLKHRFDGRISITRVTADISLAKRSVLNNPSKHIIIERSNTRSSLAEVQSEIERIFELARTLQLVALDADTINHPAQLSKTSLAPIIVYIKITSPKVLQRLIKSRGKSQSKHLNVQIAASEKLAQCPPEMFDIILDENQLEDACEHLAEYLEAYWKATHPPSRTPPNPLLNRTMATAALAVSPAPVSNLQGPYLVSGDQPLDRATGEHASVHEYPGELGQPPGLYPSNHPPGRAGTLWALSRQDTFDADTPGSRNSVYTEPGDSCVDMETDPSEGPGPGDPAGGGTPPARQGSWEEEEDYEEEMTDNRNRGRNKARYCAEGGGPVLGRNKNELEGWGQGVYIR
Procedure: (§1) N-type calcium channel blocking activity was assayed in human embryonic kidney cells, HEK 293, stably transfected with the rat brain N-type calcium channel subunits (α1B+α2δ+β1b cDNA subunits). Alternatively, N-type calcium channels (α1B+α2δ+β1b cDNA subunits), L-type channels (α1C+α2δ+β1b cDNA subunits) and P/Q-type channels (α1A+α2δ+β1b cDNA subunits) were transiently expressed in HEK 293 cells. Briefly, cells were cultured in Dulbecco's modified eagle medium (DMEM) supplemented with 10% fetal bovine serum, 200 U/ml penicillin and 0.2 mg/ml streptomycin at 37° C. with 5% CO2. At 85% confluency cells were split with 0.25% trypsin/1 mM EDTA and plated at 10% confluency on glass coverslips. At 12 hours the medium was replaced and the cells transiently transfected using a standard calcium phosphate protocol and the appropriate calcium channel cDNAs. Fresh DMEM was supplied and the cells transferred to 28° C./5% CO2. Cells were incubated for 1 to 2 days to whole cell recording.
(§2) Whole cell patch clamp experiments were performed using an Axopatch 200B amplifier (Axon Instruments, Burlingame, Calif.) linked to a personal computer equipped with pCLAMP software. The external and internal recording solutions contained, respectively, 5 mM BaCl2, 1 mM MgCl2, 10 mM HEPES, 40 mM TEACl, 10 mM glucose, 87.5 mM CsCl (pH 7.2) and 108 mM CsMS, 4 mM MgCl2, 9 mM EGTA, 9 mM HEPES (pH 7.2). Currents were typically elicited from a holding potential of −80 mV to +10 mV using Clampex software (Axon Instruments). Typically, currents were first elicited with low frequency stimulation (0.03 Hz) and allowed to stabilize prior to application of the compounds. The compounds were then applied during the low frequency pulse trains for two to three minutes to assess tonic block, and subsequently the pulse frequency was increased to 0.2 Hz to assess frequency dependent block. Data were analyzed using Clampfit (Axon Instruments) and SigmaPlot 4.0 (Jandel Scientific).

[2] = target: P/Q-type channels (α1A+α2δ+β1b cDNA subunits) (UniProt P54282); experiment: Whole cell patch clamp, tonic and frequency dependent block, P/Q-type channels in HEK 293 (Example 5)
Procedure: as §1, §2
(§3) Tables 2 and 3 show the results of similar experiments conducted with P/Q-type and L-type channels expressed in HEK 293 cells.

[3] = target: T2, L-type channels (α1C+α2δ+β1b cDNA subunits) (UniProt P22002); experiment: Whole cell patch clamp, tonic and frequency dependent block, L-type channels in HEK 293 (Example 5)
T2 construct: other: α1C (L-type), 100 nM, 0.03 Hz; other: α1C (L-type), 100 nM, 0.2 Hz; other: α1C (L-type), 0.03 Hz; other: α1C (L-type), 0.2 Hz
Procedure: as §1, §2, §3

[4] = target: T3, rat α1B+α2b+β1b channels (N-type channels) (Rattus norvegicus, UniProt Q02294); experiment: Whole cell patch recordings, N-type calcium channel block (Examples 1 and 4); details: block of N-type calcium channels, HEK cells, 5 mM barium as charge carrier
T3 construct: expressed in transfected cells
T3 sequence (Q02294 whole entry): as the sequence (Q02294 whole entry) above
T3 sequence (P54290 25-944 partner limits assumed): as the sequence (P54290 25-944 partner limits assumed) above
T3 sequence (P54290 945-1091 partner limits assumed): as the sequence (P54290 945-1091 partner limits assumed) above
T3 sequence (P54283 whole entry partner): as the sequence (P54283 whole entry partner) above
Procedure: Antagonist activity was measured using whole cell patch recordings on human embryonic kidney cells either stably or transiently expressing rat α1B+α2b+β1b channels (N-type channels) with 5 mM barium as a charge carrier.
For transient expression, host cells, such as human embryonic kidney cells, HEK 293 (ATCC# CRL 1573) were grown in standard DMEM medium supplemented with 2 mM glutamine and 10% fetal bovine serum. HEK 293 cells were transfected by a standard calcium-phosphate-DNA coprecipitation method using the rat α1B+β1b+α2δ N-type calcium channel subunits in a vertebrate expression vector (for example, see Current Protocols in Molecular Biologyl ).
After an incubation period of from 24 to 72 hrs the culture medium was removed and replaced with external recording solution (see below). Whole cell patch clamp experiments were performed using an Axopatch 200B amplifier (Axon Instruments, Burlingame, Calif.) linked to an IBM compatible personal computer equipped with pCLAMP software. Borosilicate glass patch pipettes (Sutter Instrument Co., Novato, Calif.) were polished (Microforge, Narishige, Japan) to a resistance of about 4 MΩ when filled with cesium methanesulfonate internal solution (composition in MM: 109 CsCH3SO4, 4 MgCl2, 9 EGTA, 9 HEPES, pH 7.2). Cells were bathed in 5 mM Ba^++ (in mM: 5 BaCl2, 1 MgCl2, 10 HEPES, 40 tetraethylammonium chloride, 10 glucose, 87.5 CsCl pH 7.2). Current data shown were elicited by a train of 100 ms test pulses at 0.066 Hz from −100 mV and/or −80 mV to various potentials (min. −20 mV, max. +30 mV). Drugs were perfused directly into the vicinity of the cells using a microperfusion system.
Normalized dose-response curves were fit (Sigmaplot 4.0, SPSS Inc., Chicago, Ill.) by the Hill equation to determine IC50 values. Steady-state inactivation curves were plotted as the normalized test pulse amplitude following 5 s inactivating prepulses at +10 mV increments. Inactivation curves were fit (Sigmaplot 4.0) with the Boltzman equation, Ipeak (normalized)=1/(1+exp((V−Vh)z/25.6)), where V and Vh are the conditioning and half inactivation potentials, respectively, and z is the slope factor.

[5] = Table 4 summary, 0.2 Hz, N-type, unit not given in Table 4 (μM in Table 1), read-out: N (IC50 values)
[6] = α1B (N-type), 0.03 Hz, read-out: Estimated IC50 (μM) 0.03 Hz
[7] = α1B (N-type), 0.2 Hz, read-out: Estimated IC50 (μM) 0.2 Hz
[8] = Table 4 summary, 0.2 Hz, P/Q-type, unit not given in Table 4 (μM in Table 2), read-out: P/Q (IC50 values)
[9] = α1A (P/Q-type), 0.03 Hz, read-out: Estimated IC50 (μM) 0.03 Hz
[10] = α1A (P/Q-type), 0.2 Hz, read-out: Estimated IC50 (μM) 0.2 Hz
[11] = Table 4 summary, 0.2 Hz, L-type, unit not given in Table 4 (μM in Table 3), read-out: L (IC50 values)
[12] = α1C (L-type), 0.03 Hz, read-out: Estimated IC50 (μM) 0.03 Hz
[13] = α1C (L-type), 0.2 Hz, read-out: Estimated IC50 (μM) 0.2 Hz

SMILES | IC50 [1, 5] | % Block (100 nM) 0.03 Hz ([1]; α1B (N-type)) | % Block (100 nM) 0.2 Hz ([1]; α1B (N-type)) | IC50 [1, 6] | IC50 [1, 7] | IC50 [2, 8] | % Block (100 nM) 0.03 Hz ([2]; α1A (P/Q-type), 0.03 Hz) | % Block (100 nM) 0.2 Hz ([2]; α1A (P/Q-type), 0.2 Hz) | IC50 [2, 9] | IC50 [2, 10] | IC50 [3, 11] | % Block (100 nM) 0.03 Hz ([3]; α1C (L-type), 0.03 Hz) | % Block (100 nM) 0.2 Hz ([3]; α1C (L-type), 0.2 Hz) | IC50 [3, 12] | IC50 [3, 13] | IC50 [4]
COc1ccc(CN2CCN(C(c3ccc(F)cc3)c3ccc(F)cc3)CC2)c(OC)c1OC [39-36-1 Lomerizine, Lomerizine, reference compound] | 0.09 µM | 24% | 54% | 0.39 µM | 0.09 µM | 0.07 µM | 25% | 57% | 0.46 µM | 0.07 µM | 0.15 µM | 26% | 44% | 0.29 µM | 0.15 µM | –
COc1cc(C(=O)N2CCN(C(c3ccc(F)cc3)c3ccc(F)cc3)CC2)cc(OC)c1OC [39-36-2] | 0.07 µM | 29% | 60% | 0.32 µM | 0.07 µM | 0.11 µM | 35% | 52% | 0.31 µM | 0.11 µM | 0.4 µM | 11% | 22% | 2.1 µM | 0.4 µM | –
COc1ccc(/C=C/C(=O)N2CCN(C(=O)CCCCC(c3ccccc3)c3ccccc3)CC2)cc1 [SH-123A] | 0.09 µM | 19% | 55% | 0.47 µM | 0.09 µM | 0.07 µM | 29% | 61% | 0.26 µM | 0.07 µM | 0.25 µM | 21% | 37% | 0.62 µM | 0.25 µM | –
O=C(/C=C/c1ccc2c(c1)OCO2)N1CCN(C(=O)CCCCC(c2ccccc2)c2ccccc2)CC1 [SH-123B] | 0.13 µM | 9% | 45% | 1.27 µM | 0.13 µM | 0.13 µM | 16% | 44% | 0.55 µM | 0.13 µM | 0.74 µM | 8% | 14% | 2.06 µM | 0.74 µM | –
Nc1ccc(/C=C/C(=O)N2CCN(C(=O)CCCCC(c3ccccc3)c3ccccc3)CC2)cc1 [SH-134] | 0.15 µM | 20% | 41% | 0.44 µM | 0.15 µM | 0.12 µM | 20% | 45% | 0.45 µM | 0.12 µM | 0.83 µM | 11% | 21% | 1.6 µM | 0.83 µM | –
CC(=O)Nc1ccc(/C=C/C(=O)N2CCN(C(=O)CCCCC(c3ccccc3)c3ccccc3)CC2)cc1 [SH-136] | 0.14 µM | 14% | 44% | 0.63 µM | 0.14 µM | 0.15 µM | 18% | 42% | 0.52 µM | 0.15 µM | 1.4 µM | 4% | 8% | 2.8 µM | 1.4 µM | –
O=C(CCCCC(c1ccccc1)C1CCCCC1)N1CCN(CC=Cc2ccccc2)CC1 (stereo not shown) [Φ, Cy; CH(CH2)4CO; N; 1; CH═CHΦ] | – | – | – | – | – | – | – | – | – | – | – | – | – | – | – | 3.9 µM
c1ccc(CCN2CCN(CCCCCC(c3ccccc3)C3CCCCC3)CC2)cc1 (stereo not shown) [Φ, Cy; CH(CH2)5; N; 2; Φ] | – | – | – | – | – | – | – | – | – | – | – | – | – | – | – | 3.1 µM
O=C(CCCCCC(c1ccccc1)C1CCCCC1)N1CCN(C(c2ccccc2)c2ccccc2)CC1 (stereo not shown) [Φ, Cy; CH(CH2)5CO; N; 0; CHΦ2] | – | – | – | – | – | – | – | – | – | – | – | – | – | – | – | 10.2 µM
c1ccc(C(CN2CCN(CC(c3ccccc3)C3CCCCC3)CC2)c2ccccc2)cc1 (stereo not shown) [Φ, Cy; CHCH2; N; 1; CHΦ2] | – | – | – | – | – | – | – | – | – | – | – | – | – | – | – | 20 µM
